Experimental data from the OPERA property sets (Mansouri et al. 2018).

logP	SMILES
4.8	COc1cc(N=Nc2c(Br)cc([N+](=O)[O-])cc2[N+](=O)[O-])c(NC(C)=O)cc1N(CCOC(C)=O)CCOC(C)=O
5.4	C=CCN(CCC#N)c1cc(NC(C)=O)c(N=Nc2c(Br)cc([N+](=O)[O-])cc2[N+](=O)[O-])cc1OC
4.3	CCN(CCO)c1ccc(N=Nc2ccc([N+](=O)[O-])cc2)cc1
4.1	O=C1c2ccccc2C(=O)C1c1ccc2ccccc2n1
4.3	Cc1cc(N(CCO)CCO)ccc1N=Nc1ccc([N+](=O)[O-])cc1Cl
4.1	CNc1cccc2c1C(=O)c1ccccc1C2=O
3	Nc1ccc(N)c2c1C(=O)c1ccccc1C2=O
4	N#CCCN(CCO)c1ccc(N=Nc2ccc([N+](=O)[O-])cc2Cl)cc1
5	O=C1c2ccccc2C(=O)C1c1nc2ccccc2cc1O
4.6	O=[N+]([O-])c1cc(S(=O)(=O)Nc2ccccc2)ccc1Nc1ccccc1
3.5	COc1cc(N)c2c(c1N)C(=O)c1ccccc1C2=O
3.4	CCn1c(O)c(N=Nc2ccc(Cl)cc2[N+](=O)[O-])c(C)c(C#N)c1=O
